B1: Antibody 1: anti-sclerostin antibody with VH domain SEQ ID NO: 1 and VL domain SEQ ID NO: 2, disclosed in WO09047356 (antibody, V domains shown)
VH: QVQLVESGGGLVQPGGSLRLSCAASGFTFRSHWLSWVRQAPGKGLEWVSNINYDGSSTYYADSVKGRFTISRDNSKNTLYLQMNSLRAEDTAVYYCARDTYLHFDYWGQGTLVTVSS
VL: DIALTQPASVSGSPGQSITISCTGTSSDVGDINDVSWYQQHPGKAPKLMIYDVNNRPSGVSNRFSGSKSGNTASLTISGLQAEDEADYYCQSYAGSYLSEVFGGGTKLTVLGQ
modifications: Antibody Vh; Antibody Vl

Key:
[1] = test system: bone resorption; settings: zoledronic acid versus etidronate; reference 22; cited from earlier work
[2] = test system: estrogen-deprived (OVX) Wistar rats with titanium screw implant in the left tibia; experiment: biomechanical removal torque testing of titanium screw implants in tibia of ovariectomized rats; format: in vivo, rat; settings: 4 weeks post-implantation, implant coated with 8.5 μg zoledronate and/or Antibody 1 100 mg/kg iv. weekly, FIG. 2
Experimental: Titanium screw type implants (3 mm length, 1-1.5 mm diameter, self-cutting) were prepared by either (1) sand blasting and acid etching with no further coating, or (2) sand blasted and acid etched, then coated with 8.5 μg zoledronate. The coating was carried out by warming the implants and then dip coating with a zolendronate stearate salt and then allowing to dry at 80° C. as described for alendronic acid coating in reference 36. The […] and drying cycle was carried out 3 times. Skeletally mature virgin Wistar rats (6.5-month-old, Harlan laboratories, Switzerland) were estrogen-deprived by ovariectomy (OVX) under narcosis. Bone mineral density loss was confirmed in the proximal tibia metaphysis (4.5 mm distal from proximal end) three months post-ovariectomy (compared to intact controls) by peripheral quantitative computed tomography as described previously. The titanium screws were implanted approximately 3 mm distal to the proximal end of the left tibia under narcosis. Animals received a sand-blasted acid edged titanium implant with or without zoledronic acid coating which were prepared as above. Animals were distributed into the following groups [n=16/group and time point]: 1. OVX group receiving control implant 2. […] Intact group receiving control implant Animals were sacrificed 2 and 4 weeks post-implantation. […]

| Molecule | potency relative to etidronate [1] | increase in removal torque versus OVX control implant (group 1) [2] [%] |
| --- | --- | --- |
| O=P(O)(O)C(O)(Cn1ccnc1)P(=O)(O)O [zoledronic acid, 1-hydroxy-2-(imidazol-1-yl)ethane-1,1-diphosphonic acid] | 10,000 times |  |
| B1 |  | 32 |

— US20130138221A1, “METHODS AND COMPOSITIONS FOR IMPROVING IMPLANT OSSEOINTEGRATION” (Novartis AG, priority 2010, published 2013)
